From patent US5672715A, “Herbicidal substituted 3-aryl-pyrazoles” (Monsanto Company, priority 1995, dated 1997)

Columns and labels:
Assay type in all cases: in vivo
[1] = system: Barnyardgrass; assay: pre-emergence herbicide test; conditions: Echinochloa crus-galli, pre-emergence, 0.25 lb/A; read-out: % plant inhibition
Method in brief: (§1)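 Pre-emergence soil treatment: seeds on compacted topsoil, cover layer dosed with test compound in organic solvent (e.g. acetone) or water. Greenhouse, subirrigated as needed, sometimes 1/4 inch overhead water right after treatment. Read-out ~14 d: % inhibition.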

[2] = system: Giant Foxtail; assay: pre-emergence herbicide test; conditions: Setaria faberi, pre-emergence, 0.25 lb/A; read-out: % plant inhibition
Method in brief: as §1

[3] = system: Velvetleaf; assay: pre-emergence herbicide test; conditions: Abutilon theophrasti, pre-emergence, 0.25 lb/A; read-out: % plant inhibition
Method in brief: as §1

[4] = system: Morning Glory; assay: pre-emergence herbicide test; conditions: Ipomoea, pre-emergence, 0.25 lb/A; read-out: % plant inhibition
Method in brief: as §1

[5] = system: Rape; assay: pre-emergence herbicide test; conditions: pre-emergence, 0.25 lb/A; read-out: % plant inhibition
Method in brief: as §1

[6] = system: Downy Brome; assay: pre-emergence herbicide test; conditions: Bromus tectorum, pre-emergence, 0.25 lb/A; read-out: % plant inhibition
Method in brief: as §1

[7] = system: Wheat; assay: pre-emergence herbicide test; conditions: Triticum aestivum, pre-emergence, 0.25 lb/A; read-out: % plant inhibition
Method in brief: as §1

[8] = system: Soybean; assay: pre-emergence herbicide test; conditions: Glycine max, pre-emergence, 0.25 lb/A; read-out: % plant inhibition
Method in brief: as §1

[9] = system: Common Chickweed; assay: pre-emergence herbicide test; conditions: pre-emergence, 0.25 lb/A; read-out: % plant inhibition
Method in brief: as §1

[10] = system: Green Foxtail; assay: pre-emergence herbicide test; conditions: Setaria viridis, pre-emergence; 0.25 lb/A; read-out: % plant inhibition
Method in brief: as §1

[11] = system: Seedling Johnsongrass; assay: pre-emergence herbicide test; conditions: Sorghum halepense, pre-emergence, 0.25 lb/A; read-out: % plant inhibition
Method in brief: as §1

[12] = system: Birdseye Speedwell; assay: pre-emergence herbicide test; conditions: pre-emergence, 0.25 lb/A; read-out: % plant inhibition
Method in brief: as §1

[13] = system: Wild Oats; assay: pre-emergence herbicide test; conditions: Avena fatua, pre-emergence, 0.25 lb/A; read-out: % plant inhibition
Method in brief: as §1

[14] = system: Bedstraw Catchweed; assay: pre-emergence herbicide test; conditions: Galium aparine, pre-emergence, 0.25 lb/A; read-out: % plant inhibition
Method in brief: as §1

[15] = system: Cocklebur; assay: pre-emergence herbicide test; conditions: Xanthium strumarium, pre-emergence, 0.25 lb/A; read-out: % plant inhibition
Method in brief: as §1

[16] = system: Corn; assay: pre-emergence herbicide test; conditions: Zea mays, pre-emergence, 0.25 lb/A; read-out: % plant inhibition
Method in brief: as §1

[17] = system: Blackgrass; assay: pre-emergence herbicide test; conditions: Alopecurus myosuroides, pre-emergence, 0.25 lb/A; read-out: % plant inhibition
Method in brief: as §1

[18] = system: Barnyardgrass; assay: post-emergence herbicide test; conditions: Echinochloa crus-galli, post-emergence, 0.25 lb/A; read-out: % plant inhibition
Method in brief: (§2)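 Seeds sown on compacted topsoil, covered, leveled; greenhouse, overhead or subirrigation. Plants 2–3 wk old → atomizer spray, 170.3 kPa, 1870 L/Ha, ~0.4% v/v emulsifier. Readout: % inhibition.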

[19] = system: Giant Foxtail; assay: post-emergence herbicide test; conditions: Setaria faberi, post-emergence, 0.25 lb/A; read-out: % plant inhibition
Method in brief: as §2

[20] = system: Velvetleaf; assay: post-emergence herbicide test; conditions: Abutilon theophrasti, post-emergence, 0.25 lb/A; read-out: % plant inhibition
Method in brief: as §2

[21] = system: Morning Glory; assay: post-emergence herbicide test; conditions: Ipomoea, post-emergence, 0.25 lb/A; read-out: % plant inhibition
Method in brief: as §2

[22] = system: Rape; assay: post-emergence herbicide test; conditions: post-emergence, 0.25 lb/A; read-out: % plant inhibition
Method in brief: as §2

[23] = system: Downy Brome; assay: post-emergence herbicide test; conditions: Bromus tectorum, post-emergence, 0.25 lb/A; read-out: % plant inhibition
Method in brief: as §2

[24] = system: Wheat; assay: post-emergence herbicide test; conditions: Triticum aestivum, post-emergence, 0.25 lb/A; read-out: % plant inhibition
Method in brief: as §2

[25] = system: Soybean; assay: post-emergence herbicide test; conditions: Glycine max, post-emergence, 0.25 lb/A; read-out: % plant inhibition
Method in brief: as §2

[26] = system: Common Chickweed; assay: post-emergence herbicide test; conditions: post-emergence, 0.25 lb/A; read-out: % plant inhibition
Method in brief: as §2

[27] = system: Green Foxtail; assay: post-emergence herbicide test; conditions: Setaria viridis, post-emergence, 0.25 lb/A; read-out: % plant inhibition
Method in brief: as §2

[28] = system: Seedling Johnsongrass; assay: post-emergence herbicide test; conditions: Sorghum halepense, post-emergence, 0.25 lb/A; read-out: % plant inhibition
Method in brief: as §2

[29] = system: Birdseye Speedwell; assay: post-emergence herbicide test; conditions: post-emergence, 0.25 lb/A; read-out: % plant inhibition
Method in brief: as §2

[30] = system: Wild Oats; assay: post-emergence herbicide test; conditions: Avena fatua, post-emergence, 0.25 lb/A; read-out: % plant inhibition
Method in brief: as §2

[31] = system: Bedstraw Catchweed; assay: post-emergence herbicide test; conditions: Galium aparine, post-emergence, 0.25 lb/A; read-out: % plant inhibition
Method in brief: as §2

[32] = system: Cocklebur; assay: post-emergence herbicide test; conditions: Xanthium strumarium, post-emergence, 0.25 lb/A; read-out: % plant inhibition
Method in brief: as §2

[33] = system: Corn; assay: post-emergence herbicide test; conditions: Zea mays, post-emergence, 0.25 lb/A; read-out: % plant inhibition
Method in brief: as §2

[34] = system: Blackgrass; assay: post-emergence herbicide test; conditions: Alopecurus myosuroides, post-emergence, 0.25 lb/A; read-out: % plant inhibition
Method in brief: as §2

Row | SMILES | inhibition at 280.212 g/ha [1] [%] | inhibition at 280.212 g/ha [2] [%] | inhibition at 280.212 g/ha [3] [%] | inhibition at 280.212 g/ha [4] [%] | inhibition at 280.212 g/ha [5] [%] | inhibition at 280.212 g/ha [6] [%] | inhibition at 280.212 g/ha [7] [%] | inhibition at 280.212 g/ha [8] [%] | inhibition at 280.212 g/ha [9] [%] | inhibition at 280.212 g/ha [10] [%] | inhibition at 280.212 g/ha [11] [%] | inhibition at 280.212 g/ha [12] [%] | inhibition at 280.212 g/ha [13] [%] | inhibition at 280.212 g/ha [14] [%] | inhibition at 280.212 g/ha [15] [%] | inhibition at 280.212 g/ha [16] [%] | inhibition at 280.212 g/ha [17] [%] | inhibition at 280.212 g/ha [18] [%] | inhibition at 280.212 g/ha [19] [%] | inhibition at 280.212 g/ha [20] [%] | further results
1 | C#CCOC(=O)c1cc(-c2nn(C)c(C(F)(F)F)c2C)c(F)cc1Cl [Compound 42] | 35 | 0 | 65 | 60 | 5 | 10 | 0 | 0 | 40 | 95 | 0 | 30 | 5 | 80 | 65 | 5 | 15 | 65 | 0 | 98 | inhibition at 280.212 g/ha [21]: 70%; inhibition at 280.212 g/ha [22]: 40%; inhibition at 280.212 g/ha [23]: 30%; inhibition at 280.212 g/ha [24]: 15%; inhibition at 280.212 g/ha [25]: 10%; inhibition at 280.212 g/ha [26]: 95%; inhibition at 280.212 g/ha [27]: 40%; inhibition at 280.212 g/ha [28]: 45%; inhibition at 280.212 g/ha [29]: 95%; inhibition at 280.212 g/ha [30]: 20%; inhibition at 280.212 g/ha [31]: 100%; inhibition at 280.212 g/ha [32]: 85%; inhibition at 280.212 g/ha [33]: 25%; inhibition at 280.212 g/ha [34]: 20%
2 | Cc1c(-c2cc(C(N)=O)c(Cl)cc2F)nn(C)c1C(F)(F)F [Compound 21] | 90 | 45 | 25 | 20 | 90 | 35 | 5 | 15 | 98 | 100 | 85 | 100 | 60 | 90 | 20 | 16 | 95 | 25 | 35 | 90 | inhibition at 280.212 g/ha [21]: 90%; inhibition at 280.212 g/ha [22]: 20%; inhibition at 280.212 g/ha [23]: 25%; inhibition at 280.212 g/ha [24]: 5%; inhibition at 280.212 g/ha [25]: 35%; inhibition at 280.212 g/ha [26]: 30%; inhibition at 280.212 g/ha [27]: 25%; inhibition at 280.212 g/ha [28]: 35%; inhibition at 280.212 g/ha [29]: 50%; inhibition at 280.212 g/ha [30]: 20%; inhibition at 280.212 g/ha [31]: 65%; inhibition at 280.212 g/ha [32]: 65%; inhibition at 280.212 g/ha [33]: 10%; inhibition at 280.212 g/ha [34]: 10%
3 | CC(C)OC(=O)c1cc(-c2nn(C)c(C(F)(F)F)c2CO)c(F)cc1Cl [Compound 14, 2-Chloro-4-fluoro-5-[4-(hydroxymethyl)-1-methyl-5-(trifluoromethyl)-1H-pyrazol-3-yl]benzoic acid, 1-methylethyl ester] | 90 | 98 | 60 | 40 | 5 | 30 | 2 | 8 | 98 | 100 | 97 | 98 | 50 | 20 | 15 | 15 | 65 | 65 | 25 | 99 | inhibition at 280.212 g/ha [21]: 85%; inhibition at 280.212 g/ha [22]: 75%; inhibition at 280.212 g/ha [23]: 60%; inhibition at 280.212 g/ha [24]: 13%; inhibition at 280.212 g/ha [25]: 25%; inhibition at 280.212 g/ha [26]: 45%; inhibition at 280.212 g/ha [27]: 65%; inhibition at 280.212 g/ha [28]: 80%; inhibition at 280.212 g/ha [29]: 90%; inhibition at 280.212 g/ha [30]: 50%; inhibition at 280.212 g/ha [31]: 40%; inhibition at 280.212 g/ha [32]: 95%; inhibition at 280.212 g/ha [33]: 10%; inhibition at 280.212 g/ha [34]: 60%
